Results as given in patent US20040147788A1, “Stilbene derivatives and their use as aryl hydrocarbon receptor antagonistic ligands” (priority 2002, published 2004).

Legend:
[1] = target: T1, AhR (Homo sapiens, UniProt P35869); experiment: AhR-mediated transactivation, DRE-TK-CAT stable cell line 47DRE treated with TCDD; type: cell-based; design: endogenous in cells; key to AhR T.A. (transcriptional activity): Ago: agonist; N.M.: not measurable; details: DRE-TKCAT reporter; for AhR TA (transcriptional activity): cis-stilbenes, 10^−9 M TCDD challenged by 10−7 M compound; for AhR T.A. (transcriptional activity): trans-stilbenes, 10^−9 M TCDD challenged by 10^−7 M compound
T1 sequence (P35869 11-848): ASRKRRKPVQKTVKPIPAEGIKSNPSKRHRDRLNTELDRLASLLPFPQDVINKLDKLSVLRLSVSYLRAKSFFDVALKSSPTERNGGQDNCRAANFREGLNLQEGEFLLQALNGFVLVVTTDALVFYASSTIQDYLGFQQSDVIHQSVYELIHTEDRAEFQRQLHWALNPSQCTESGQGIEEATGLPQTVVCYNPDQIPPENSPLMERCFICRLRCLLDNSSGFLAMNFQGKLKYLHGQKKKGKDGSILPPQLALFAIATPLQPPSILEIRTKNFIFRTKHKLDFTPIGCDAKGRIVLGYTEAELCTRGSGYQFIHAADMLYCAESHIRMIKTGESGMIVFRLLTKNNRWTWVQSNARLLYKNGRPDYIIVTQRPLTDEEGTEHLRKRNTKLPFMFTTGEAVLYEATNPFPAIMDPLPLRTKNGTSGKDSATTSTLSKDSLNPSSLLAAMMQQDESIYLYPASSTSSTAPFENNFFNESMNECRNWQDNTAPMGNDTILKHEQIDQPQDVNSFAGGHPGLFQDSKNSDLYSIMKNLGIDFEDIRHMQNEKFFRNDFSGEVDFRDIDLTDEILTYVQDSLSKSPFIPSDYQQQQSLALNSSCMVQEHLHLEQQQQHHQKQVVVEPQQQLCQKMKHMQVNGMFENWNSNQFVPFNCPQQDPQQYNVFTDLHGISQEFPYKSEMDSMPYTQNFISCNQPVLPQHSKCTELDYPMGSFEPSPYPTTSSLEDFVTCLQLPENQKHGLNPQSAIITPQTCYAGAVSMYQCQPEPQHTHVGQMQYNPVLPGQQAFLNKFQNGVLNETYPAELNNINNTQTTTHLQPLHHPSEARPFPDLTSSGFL
Protocol: Cis and Trans isomers were then tested for transcriptional modulatory activity in a DRE-TK-CAT containing stable cell line treated with TCDD.
mp° C.: melting point. Ago: agonist. N.M.: not measurable. RBA: relative binding affinity of the compound for the given receptor (AhR or ER).
The stable cell line 47DRE bearing the TCDD-responsive CAT construct was previously described (3). It was routinely grown in DMEM medium supplemented with 10% fetal calf serum (FCS), 4.5 g/L glucose, and 0.6 units/ml (10^−6 M) insulin. Unless stated otherwise, cells were established 24 hours before any experiment in a modified medium (stripped condition) containing 5% Dextran-charcoal-treated newbom calf serum instead of 10% FCS. All other components remained unchanged. […] All chemicals applied to the cells were diluted in ethanol, control cells received ethanol alone. CAT expression was assayed on whole cell extracts (100 μg protein) with a CAT-ELISA assay (Roche, Meylan, France) according to supplier's specifications. Experiments were done in triplicate.

[2] = target: T2, ER (Homo sapiens, UniProt P03372); experiment: ER-mediated transactivation, ERE-driven Luciferase reporter stable cell line (MCF-7-Luc); type: cell-based; details: for ER TA (transcriptional activity): cis-stilbenes; for ER T.A. (transcriptional activity): trans-stilbenes
T2 construct: stably transfecting MCF-7 cells with the ERE-globin-tk-luc-SV-Neo plasmid; endogenous in cells; host or cells: MCF-7-Luc (MCF-7 stably transfected with ERE-globin-tk-luc-SV-Neo)
T2 sequence (P03372 1-595): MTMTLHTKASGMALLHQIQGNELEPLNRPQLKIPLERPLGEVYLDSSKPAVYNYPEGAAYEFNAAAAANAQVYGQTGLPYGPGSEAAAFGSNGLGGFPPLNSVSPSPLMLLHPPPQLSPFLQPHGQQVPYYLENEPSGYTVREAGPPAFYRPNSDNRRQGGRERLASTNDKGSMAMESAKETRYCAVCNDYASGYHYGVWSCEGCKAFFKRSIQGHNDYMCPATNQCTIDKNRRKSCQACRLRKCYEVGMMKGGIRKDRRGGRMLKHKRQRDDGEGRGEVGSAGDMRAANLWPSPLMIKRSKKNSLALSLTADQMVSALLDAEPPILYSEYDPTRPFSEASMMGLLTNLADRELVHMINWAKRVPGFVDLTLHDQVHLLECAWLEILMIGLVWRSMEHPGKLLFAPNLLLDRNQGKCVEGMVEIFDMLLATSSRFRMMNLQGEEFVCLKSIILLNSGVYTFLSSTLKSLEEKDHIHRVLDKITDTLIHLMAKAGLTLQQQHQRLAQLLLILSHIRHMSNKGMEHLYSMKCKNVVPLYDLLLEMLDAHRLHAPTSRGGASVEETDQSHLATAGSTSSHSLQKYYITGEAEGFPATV
Protocol: The human adenocarcinoma breast cell line MCF-7 was obtained from the American Tissue Culture Collection (Rockville, USA). The cells were established by stably transfecting MCF-7 cells with the ERE-globin-tk-luc-SV-Neo plasmid and thus expressed luciferase in an estrogen dependent manner MCF-7-Luc. […] Cells were incubated at 37° C. in a humidified 5% CO2 incubator. For experiments, cells were grown for 5 days in phenol red-free medium, containing 5% dextran-coated charcoal treated FCS (DCC-FCS). Medium was changed after 2 days. At day 5, cells were treated or not with compounds. Compounds were dissolved in ethanol.
For each condition, 15.103 cells were seeded per well in 12-well plates and treated, as described above, during 16 hours in a final volume of 0.5 mL. At the end of the treatment, cells were washed with PBS and lysed in 150 μl of lysis buffer (Promega, Charbonnieres, France). Luciferase activity was measured using the luciferase assay reagent (Promega), according to the manufacturer's instructions. Protein concentrations were measured using Bradford technique, to normalize the luciferase activity data. For each condition, average luciferase activity was calculated from the data of 3 independent wells.

Fc1ccc(/C=C\c2cc(F)cc(F)c2)cc1 [Compound 5d, (Z)-1-(4-fluorophenyl)-2-(3,5-difluorophenyl)-ethene]
AhR TA (transcriptional activity) [1]: Ant
ER TA (transcriptional activity) [2]: N.M

COc1ccc(/C=C\c2cc(F)cc(F)c2)cc1 [Compound 5c, (Z)-1-(4-methoxyphenyl)-2-(3,5-difluorophenyl)-ethene]
AhR TA (transcriptional activity) [1]: Ant
ER TA (transcriptional activity) [2]: N.M

COc1ccc(/C=C/c2cc(OC)cc(OC)c2)cc1 [Compound 4a, (E)-1-(4-methoxyphenyl)-2-(3,5-dimethoxyphenyl)-ethene]
AhR T.A. (transcriptional activity) [1]: Ant
ER T.A. (transcriptional activity) [2]: Ago

FC(F)(F)c1ccc(/C=C/c2cc(Cl)cc(Cl)c2)cc1 [Compound 4i, (E)-1-(4-trifluoromethylphenyl)-2-(3,5-dichlorophenyl)-ethene]
AhR T.A. (transcriptional activity) [1]: Ago
ER T.A. (transcriptional activity) [2]: N.M.

FC(F)(F)c1ccc(/C=C\c2cc(Cl)cc(Cl)c2)cc1 [Compound 5i, (Z)-1-(4-trifluoromethylphenyl)-2-(3,5-dichlorophenyl)-ethene]
AhR TA (transcriptional activity) [1]: Ant
ER TA (transcriptional activity) [2]: N.M

Clc1ccc(/C=C/c2cc(Cl)cc(Cl)c2)cc1 [Compound 4b, (E)-1-(4-chlorophenyl)-2-(3,5-dichlorophenyl)-ethene]
AhR T.A. (transcriptional activity) [1]: Ant
ER T.A. (transcriptional activity) [2]: N.M

COc1ccc(/C=C/c2cc(F)cc(F)c2)cc1 [Compound 4c, (E)-1-(4-methoxyphenyl)-2-(3,5-difluorophenyl)-ethene]
AhR T.A. (transcriptional activity) [1]: Ant
ER T.A. (transcriptional activity) [2]: N.M

COc1ccc(/C=C\c2cc(Cl)cc(Cl)c2)cc1 [Compound 5j, (Z)-1-(4-methoxyphenyl)-2-(3,5-dichlorophenyl)-ethene]
AhR TA (transcriptional activity) [1]: Ant
ER TA (transcriptional activity) [2]: N.M

COc1ccc(/C=C\c2cc(OC)cc(OC)c2)cc1 [Compound 5a, (Z)-1-(4-methoxyphenyl)-2-(3,5-dimethoxyphenyl)-ethene]
AhR TA (transcriptional activity) [1]: Ant
ER TA (transcriptional activity) [2]: Ago

FC(F)(F)c1ccc(/C=C/c2cc(C(F)(F)F)cc(C(F)(F)F)c2)cc1 [Compound 4e, (E)-1-(4-trifluoromethylphenyl)-2-(3,5-ditrifluoromethylphenyl)-ethene]
AhR T.A. (transcriptional activity) [1]: Ant
ER T.A. (transcriptional activity) [2]: N.M

CCCCOc1ccc(/C=C/c2cc(OC)cc(OC)c2)cc1 [Compound 4h, (E)-1-(4-butoxyphenyl)-2-(3,5-dimethoxyphenyl)-ethene]
AhR T.A. (transcriptional activity) [1]: Ant
ER T.A. (transcriptional activity) [2]: N.M.

COc1ccc(/C=C/c2cc(Cl)cc(Cl)c2)cc1 [Compound 4j, (E)-1-(4-methoxyphenyl)-2-(3,5-dichlorophenyl)-ethene]
AhR T.A. (transcriptional activity) [1]: Ant
ER T.A. (transcriptional activity) [2]: N.M.

COc1cc(/C=C/c2ccc(F)cc2)cc(OC)c1 [Compound 4f, (E)-1-(4-fluorophenyl)-2-(3,5-dimethoxyphenyl)-ethene]
AhR T.A. (transcriptional activity) [1]: Ant
ER T.A. (transcriptional activity) [2]: N.M

Clc1ccc(/C=C\c2cc(Cl)cc(Cl)c2)cc1 [Compound 5b, (Z)-1-(4-chlorophenyl)-2-(3,5-dichlorophenyl)-ethene]
AhR TA (transcriptional activity) [1]: Ant
ER TA (transcriptional activity) [2]: N.M

Fc1ccc(/C=C/c2cc(F)cc(F)c2)cc1 [Compound 4d, (E)-1-(4-fluorophenyl)-2-(3,5-difluorophenyl)-ethene]
AhR T.A. (transcriptional activity) [1]: Ant
ER T.A. (transcriptional activity) [2]: N.M

CCOc1ccc(/C=C\c2cc(OC)cc(OC)c2)cc1 [Compound 5g, (Z)-1-(4-ethoxyphenyl)-2-(3,5-dimethoxyphenyl)-ethene]
AhR TA (transcriptional activity) [1]: Ant
ER TA (transcriptional activity) [2]: N.M

CCCCOc1ccc(/C=C\c2cc(OC)cc(OC)c2)cc1 [Compound 5h, (Z)-1-(4-butoxyphenyl)-2-(3,5-dimethoxyphenyl)-ethene]
AhR TA (transcriptional activity) [1]: Ant
ER TA (transcriptional activity) [2]: N.M

CCOc1ccc(/C=C/c2cc(OC)cc(OC)c2)cc1 [Compound 4g, (E)-1-(4-ethoxyphenyl)-2-(3,5-dimethoxyphenyl)-ethene]
AhR T.A. (transcriptional activity) [1]: Ant
ER T.A. (transcriptional activity) [2]: N.M.

COc1cc(/C=C\c2ccc(F)cc2)cc(OC)c1 [Compound 5f, (Z)-1-(4-fluorophenyl)-2-(3,5-dimethoxyphenyl)-ethene]
AhR TA (transcriptional activity) [1]: Ant
ER TA (transcriptional activity) [2]: N.M

FC(F)(F)c1ccc(/C=C\c2cc(C(F)(F)F)cc(C(F)(F)F)c2)cc1 [Compound 5e, (Z)-1-(4-trifluoromethylphenyl)-2-(3,5-ditrifluoromethylphenyl)-ethene]
AhR TA (transcriptional activity) [1]: Ant
ER TA (transcriptional activity) [2]: N.M
